In PMC8284461, “Piperidine-4-Carboxamides Target DNA Gyrase in Mycobacterium abscessus” (Antimicrobial Agents and Chemotherapy, 2021):
Converted amounts (≈) assume the structure as drawn.

Legend:
[1] = system: M. abscessus subsp. abscessus Bamboo 844^r-3 (GyrB S473W); assay: MIC, resistant mutant; assay type: cell-based, Mycobacterium abscessus; conditions: Mycobacteroides abscessus
[2] = system: M. abscessus subsp. abscessus ATCC 19977 MXF^r-3 (GyrA D96G); assay: MIC, resistant mutant; assay type: cell-based, Mycobacterium abscessus; conditions: Mycobacteroides abscessus, ATCC19977
[3] = system: M. abscessus subsp. abscessus Bamboo; assay: MIC, broth microdilution; assay type: cell-based, Mycobacterium abscessus; conditions: abscessus Bamboo wild type, 90% growth inhibition, 3 days
Description: (§1) MIC was determined using the broth microdilution method in 96-well plates as described previously ([47]). Briefly, a 10-point 2-fold serial dilution of compounds was performed in 96-well plates (Costar 3370; Corning, USA) starting at twice the desired highest concentration. […] One hundred microliters of the bacterial suspension was seeded onto the 96-well plates containing 100 μl of the serially diluted compounds to give a final volume of 200 μl in each well with the final OD600 of 0.005. The plates were sealed with parafilm, placed onto wet paper towels in a lock-lock box and incubated for 3 days at 37°C with orbital shaking at 90 rpm. […] Absorbance values at day 3 were subtracted from the day 0 readout. Percent growth inhibition was calculated by dividing the absolute absorbance value of treated cells with untreated control and multiplying by 100. CLR was included in all MIC experiments as a positive control to monitor assay reproducibility. MIC was defined as 90% of growth inhibition relative to untreated controls.

[4] = system: M. abscessus subsp. massiliense M111; assay: MIC, broth microdilution; assay type: cell-based, Mycobacterium abscessus; conditions: Mycobacteroides abscessus, 72 h, 90% growth inhibition, 3 days
Description: as §1

[5] = system: M. abscessus subsp. abscessus M199; assay: MIC, broth microdilution; assay type: cell-based, Mycobacterium abscessus; conditions: Mycobacteroides abscessus, 72 h, 90% growth inhibition, 3 days
Description: as §1

[6] = system: M. abscessus subsp. bolletii M506; assay: MIC, broth microdilution; assay type: cell-based, Mycobacterium abscessus; conditions: Mycobacteroides abscessus, 72 h, 90% growth inhibition, 3 days
Description: as §1

[7] = system: M. abscessus subsp. abscessus ATCC 19977; assay: MIC, broth microdilution; assay type: cell-based, Mycobacterium abscessus; conditions: Mycobacteroides abscessus, ATCC19977, 72 h; abscessus ATCC 19977 wild type; 90% growth inhibition, 3 days
Description: as §1

[8] = system: M. abscessus subsp. abscessus M404; assay: MIC, broth microdilution; assay type: cell-based, Mycobacterium abscessus; conditions: Mycobacteroides abscessus, 72 h, 90% growth inhibition, 3 days
Description: as §1

[9] = system: M. abscessus subsp. abscessus K21; assay: MIC, broth microdilution; assay type: cell-based, Mycobacterium abscessus; conditions: Mycobacteroides abscessus, 72 h, 90% growth inhibition, 3 days
Description: as §1

[10] = system: M. abscessus subsp. bolletii M232; assay: MIC, broth microdilution; assay type: cell-based, Mycobacterium abscessus; conditions: Mycobacteroides abscessus, 72 h, 90% growth inhibition, 3 days
Description: as §1

[11] = system: M. abscessus subsp. massiliense CCUG 48898T; assay: MIC, broth microdilution; assay type: cell-based, Mycobacterium abscessus; conditions: Mycobacteroides abscessus, 72 h, 90% growth inhibition, 3 days
Description: as §1

[12] = system: M. abscessus subsp. abscessus M337; assay: MIC, broth microdilution; assay type: cell-based, Mycobacterium abscessus; conditions: Mycobacteroides abscessus, 72 h, 90% growth inhibition, 3 days
Description: as §1

[13] = system: M. abscessus subsp. bolletii CCUG 50184T; assay: MIC, broth microdilution; assay type: cell-based, Mycobacterium abscessus; conditions: Mycobacteroides abscessus, 72 h, 90% growth inhibition, 3 days
Description: as §1

[14] = system: M. abscessus subsp. abscessus M421; assay: MIC, broth microdilution; assay type: cell-based, Mycobacterium abscessus; conditions: Mycobacteroides abscessus, 72 h, 90% growth inhibition, 3 days
Description: as §1

[15] = system: M. abscessus subsp. abscessus M9; assay: MIC, broth microdilution; assay type: cell-based, Mycobacterium abscessus; conditions: Mycobacteroides abscessus, 72 h, 90% growth inhibition, 3 days
Description: as §1

[16] = system: M. abscessus subsp. abscessus ATCC 19977 844-TMF^r-4 (GyrB M474I); assay: MIC, resistant mutant; assay type: cell-based, Mycobacterium abscessus; conditions: Mycobacteroides abscessus, ATCC19977
[17] = system: M. abscessus subsp. abscessus ATCC 19977 MXF^r-1 (GyrA D96Y); assay: MIC, resistant mutant; assay type: cell-based, Mycobacterium abscessus; conditions: Mycobacteroides abscessus, ATCC19977
[18] = system: M. abscessus subsp. abscessus ATCC 19977 MXF^r-2 (GyrA D96N); assay: MIC, resistant mutant; assay type: cell-based, Mycobacterium abscessus; conditions: Mycobacteroides abscessus, ATCC19977
[19] = system: M. abscessus subsp. abscessus Bamboo 844^r-2 (GyrA D91N); assay: MIC, resistant mutant; assay type: cell-based, Mycobacterium abscessus; conditions: Mycobacteroides abscessus
[20] = target: recombinant M. abscessus wild-type DNA gyrase (Mycobacteroides abscessus, UniProt B1ME45+B1ME58); assay: biochemical; parameters: species or system Mycobacterium abscessus; conditions: wild-type DNA gyrase
Chain of recombinant M. abscessus wild-type DNA gyrase (B1ME58 entry or part of it): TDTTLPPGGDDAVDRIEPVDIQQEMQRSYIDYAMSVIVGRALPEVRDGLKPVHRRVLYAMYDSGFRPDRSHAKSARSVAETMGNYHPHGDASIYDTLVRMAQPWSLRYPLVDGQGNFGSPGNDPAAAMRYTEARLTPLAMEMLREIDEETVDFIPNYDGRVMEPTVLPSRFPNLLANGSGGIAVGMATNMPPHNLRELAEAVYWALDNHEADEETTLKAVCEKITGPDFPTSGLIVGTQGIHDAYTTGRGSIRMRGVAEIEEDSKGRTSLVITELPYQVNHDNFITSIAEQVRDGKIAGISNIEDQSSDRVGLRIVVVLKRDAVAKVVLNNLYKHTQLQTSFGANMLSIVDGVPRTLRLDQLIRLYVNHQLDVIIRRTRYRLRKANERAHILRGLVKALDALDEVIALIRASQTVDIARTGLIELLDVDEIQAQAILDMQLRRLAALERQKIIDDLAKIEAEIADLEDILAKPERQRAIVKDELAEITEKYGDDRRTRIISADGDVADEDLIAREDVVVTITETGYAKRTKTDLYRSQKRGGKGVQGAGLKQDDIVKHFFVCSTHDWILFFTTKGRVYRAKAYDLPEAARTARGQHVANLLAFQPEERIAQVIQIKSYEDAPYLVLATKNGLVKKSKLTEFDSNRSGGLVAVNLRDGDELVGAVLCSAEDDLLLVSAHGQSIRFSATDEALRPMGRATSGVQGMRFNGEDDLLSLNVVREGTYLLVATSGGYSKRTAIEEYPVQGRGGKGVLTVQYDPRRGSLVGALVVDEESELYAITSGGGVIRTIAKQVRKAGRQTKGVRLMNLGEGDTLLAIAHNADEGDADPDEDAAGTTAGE
Chain of recombinant M. abscessus wild-type DNA gyrase (B1ME45 entry or part of it): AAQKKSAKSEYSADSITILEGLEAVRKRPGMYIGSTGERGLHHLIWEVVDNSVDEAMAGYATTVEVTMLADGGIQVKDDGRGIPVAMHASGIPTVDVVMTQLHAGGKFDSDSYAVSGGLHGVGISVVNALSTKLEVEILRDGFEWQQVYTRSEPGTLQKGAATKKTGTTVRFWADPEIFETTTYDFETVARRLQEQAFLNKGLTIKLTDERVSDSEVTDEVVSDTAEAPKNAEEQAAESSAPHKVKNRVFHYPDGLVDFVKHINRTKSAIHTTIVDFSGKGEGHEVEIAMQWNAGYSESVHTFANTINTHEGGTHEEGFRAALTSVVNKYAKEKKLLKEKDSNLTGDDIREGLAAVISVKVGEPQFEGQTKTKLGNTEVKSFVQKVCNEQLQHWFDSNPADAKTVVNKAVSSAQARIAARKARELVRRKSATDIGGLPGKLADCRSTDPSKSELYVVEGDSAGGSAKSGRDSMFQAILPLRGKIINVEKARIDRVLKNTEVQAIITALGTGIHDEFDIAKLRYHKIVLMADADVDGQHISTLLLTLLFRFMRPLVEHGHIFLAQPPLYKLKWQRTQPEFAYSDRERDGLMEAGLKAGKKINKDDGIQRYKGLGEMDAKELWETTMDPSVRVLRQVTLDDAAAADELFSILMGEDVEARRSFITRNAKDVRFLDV

[21] = target: GyrA D91N mutant recombinant M. abscessus DNA gyrase (Mycobacteroides abscessus, UniProt B1ME45+B1ME58, D91N); assay type: biochemical, Mycobacterium abscessus
Chain of GyrA D91N mutant recombinant M. abscessus DNA gyrase (B1ME58 2-839, stated change not applied): as the sequence (B1ME58 entry or part of it) above
Chain of GyrA D91N mutant recombinant M. abscessus DNA gyrase (B1ME45 2-675, stated change not applied): as the sequence (B1ME45 entry or part of it) above

[22] = system: P4C-resistant M. abscessus strains; assay: Cross-resistance, MICs for P4C-resistant strains; assay type: cell-based, Mycobacterium abscessus; conditions: P4C-resistant strains of Table 2
[23] = Mycobacteroides abscessus, 72 h

Structure (SMILES) | MIC [1] [µM] | MIC [2] [µM] | MIC [3, 23] [µM] | MIC [4] [µM] | MIC [5] [µM] | MIC [6] [µM] | MIC [7] [µM] | MIC [8] [µM] | MIC [9] [µM] | MIC [10] [µM] | MIC [11] [µM] | MIC [12] [µM] | MIC [13] [µM] | MIC [14] [µM] | MIC [15] [µM] | MIC [16] [µM] | MIC [17] [µM] | MIC [18] [µM] | MIC [19] [µM] | further results
COc1c(N2C[C@@H]3CCCN[C@@H]3C2)c(F)cc2c(=O)c(C(=O)O)cn(C3CC3)c12 [MXF, moxifloxacin] | 2 (≈ 0.803 µg/mL) | 80 (≈ 32.1 µg/mL) | 4 (≈ 1.61 µg/mL) | 3.2 (≈ 1.28 µg/mL) | 2.5 (≈ 1 µg/mL) | 2.5 (≈ 1 µg/mL) | 3 (≈ 1.2 µg/mL) | 3 (≈ 1.2 µg/mL) | 3 (≈ 1.2 µg/mL) | 1.5 (≈ 0.602 µg/mL) | 6.3 (≈ 2.53 µg/mL) | 1.5 (≈ 0.602 µg/mL) | 6.3 (≈ 2.53 µg/mL) | 1.5 (≈ 0.602 µg/mL) | 1.5 (≈ 0.602 µg/mL) | 2 (≈ 0.803 µg/mL) | 100 (≈ 40.1 µg/mL) | 80 (≈ 32.1 µg/mL) | 30 (≈ 12 µg/mL) | MIC [3]: 4 µM (≈ 1.61 µg/mL)
CCNC(=O)Nc1nc2cc(-c3cnc(C(C)(C)O)nc3)c(F)c([C@H]3CCCO3)c2[nH]1 [SPR719] | 0.05 (≈ 0.0214 µg/mL) | 0.3 (≈ 0.129 µg/mL) | 0.8 (≈ 0.343 µg/mL) | 6.3 (≈ 2.7 µg/mL) | 1.5 (≈ 0.643 µg/mL) | 1.5 (≈ 0.643 µg/mL) | 0.6 (≈ 0.257 µg/mL) | 1.5 (≈ 0.643 µg/mL) | 1.5 (≈ 0.643 µg/mL) | 1.5 (≈ 0.643 µg/mL) | 3 (≈ 1.29 µg/mL) | 0.8 (≈ 0.343 µg/mL) | 1.5 (≈ 0.643 µg/mL) | 0.8 (≈ 0.343 µg/mL) | 1.5 (≈ 0.643 µg/mL) | 0.3 (≈ 0.129 µg/mL) | 0.8 (≈ 0.343 µg/mL) | 0.2 (≈ 0.0857 µg/mL) | 0.1 (≈ 0.0428 µg/mL) | IC50 ([20]; relaxed pBR322 substrate, read-out: IC50, supercoiling activity): 2.3 µM; effect on supercoiling activity ([20]; up to 50 μM): inhibited supercoiling activity; IC50, supercoiling activity [21]: same IC50 as the wild-type enzyme; cross-resistance caused by P4C resistance mutations [22]: did not cause cross-resistance
